In ChEMBL document CHEMBL4020749, “Phenanthridin-6-one derivatives as the first class of non-steroidal pharmacological chaperones for Niemann-Pick disease type C1 protein” (Bioorg Med Chem Lett, 2017):
Activity calls are given as the source filed them. No cut-off for these calls is given here.

Columns and labels:
[1] = biological target: NPC intracellular cholesterol transporter 1 (Homo sapiens, UniProt O15118, I1061T); assay: (§1) Chaperone activity at FLAG/GFP-tagged NPC1 I1061T mutant (unknown origin) expressed in HEK293 cells assessed as increase in localization of protein mutant in late endosomes after 24 hrs by Hoechst 33342 staining based fluorescence microscopic analysis; type: cell-based
[2] = test system: T1, NPC intracellular cholesterol transporter 1 (Homo sapiens), O15118 [I1061T]; assay: Chaperone activity at FLAG/GFP-tagged NPC1 I1061T mutant (unknown origin) expressed in HEK293 cells assessed as increase in localization of protein mutant in late endosomes at 30 uM after 24 hrs by Hoechst 33342 staining based fluorescence microscopic analysis; type: cell-based
T1 sequence (whole entry): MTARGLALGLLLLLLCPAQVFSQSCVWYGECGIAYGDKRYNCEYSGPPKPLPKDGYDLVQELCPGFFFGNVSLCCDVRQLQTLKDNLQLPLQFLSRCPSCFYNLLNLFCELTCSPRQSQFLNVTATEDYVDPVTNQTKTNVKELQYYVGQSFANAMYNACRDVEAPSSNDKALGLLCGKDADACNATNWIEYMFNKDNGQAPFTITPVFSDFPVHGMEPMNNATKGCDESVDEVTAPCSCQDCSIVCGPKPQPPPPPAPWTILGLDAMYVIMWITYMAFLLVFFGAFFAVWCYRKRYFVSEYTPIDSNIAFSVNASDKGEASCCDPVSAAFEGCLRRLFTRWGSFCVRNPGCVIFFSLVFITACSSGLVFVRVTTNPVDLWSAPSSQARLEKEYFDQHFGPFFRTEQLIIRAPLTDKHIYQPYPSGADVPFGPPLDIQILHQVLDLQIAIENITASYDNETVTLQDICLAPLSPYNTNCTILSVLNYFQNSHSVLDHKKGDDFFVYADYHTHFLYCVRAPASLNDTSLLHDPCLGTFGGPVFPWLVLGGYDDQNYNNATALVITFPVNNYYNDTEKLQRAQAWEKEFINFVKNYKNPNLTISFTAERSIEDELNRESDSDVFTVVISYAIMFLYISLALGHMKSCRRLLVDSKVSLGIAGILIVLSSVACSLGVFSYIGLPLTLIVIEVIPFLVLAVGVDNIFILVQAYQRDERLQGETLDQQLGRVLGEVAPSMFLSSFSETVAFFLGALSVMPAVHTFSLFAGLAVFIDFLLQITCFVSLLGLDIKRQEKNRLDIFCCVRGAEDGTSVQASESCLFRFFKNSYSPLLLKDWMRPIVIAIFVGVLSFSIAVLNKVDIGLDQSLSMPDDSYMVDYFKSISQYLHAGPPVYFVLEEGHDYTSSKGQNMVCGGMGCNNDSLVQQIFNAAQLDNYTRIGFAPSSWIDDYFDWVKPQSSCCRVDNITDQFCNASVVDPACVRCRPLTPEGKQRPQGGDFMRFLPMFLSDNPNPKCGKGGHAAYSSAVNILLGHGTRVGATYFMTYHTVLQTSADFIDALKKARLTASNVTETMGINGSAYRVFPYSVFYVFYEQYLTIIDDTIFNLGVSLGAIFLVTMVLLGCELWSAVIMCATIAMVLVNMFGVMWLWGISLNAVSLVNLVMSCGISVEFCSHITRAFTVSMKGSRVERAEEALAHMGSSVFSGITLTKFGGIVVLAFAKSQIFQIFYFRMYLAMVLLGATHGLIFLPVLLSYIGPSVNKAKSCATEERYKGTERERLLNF

[3] = test system: T1, NPC intracellular cholesterol transporter 1 (Homo sapiens), O15118 [I1061T]; assay: Chaperone activity at FLAG/GFP-tagged NPC1 I1061T mutant (unknown origin) expressed in HEK293 cells assessed as increase in localization of protein mutant in late endosomes at 10 uM after 24 hrs by Hoechst 33342 staining based fluorescence microscopic analysis; type: cell-based
[4] = Solubility of the compound in DMEM medium at 30 uM; type: physicochemical
[5] = test system: T1, NPC intracellular cholesterol transporter 1 (Homo sapiens), O15118 [I1061T]; assay: Chaperone activity at FLAG/GFP-tagged NPC1 I1061T mutant (unknown origin) expressed in HEK293 cells assessed as increase in localization of protein mutant in late endosomes at 1 uM after 24 hrs by Hoechst 33342 staining based fluorescence microscopic analysis; type: cell-based
[6] = Solubility of the compound in DMEM medium at 10 uM; type: physicochemical
HEK293 [7] = assay: Chaperone activity at FLAG/GFP-tagged human NPC1L1 L1072T/I1168T double mutant expressed in HEK293 cells assessed as localization of protein mutant in plasma membrane at 3 uM after 24 hrs fluorescence microscopic analysis; type: cell-based
[8] = test system: T1, NPC intracellular cholesterol transporter 1 (Homo sapiens), O15118 [I1061T]; assay: as §1; type: cell-based
[9] = test system: T1, NPC intracellular cholesterol transporter 1 (Homo sapiens), O15118 [I1061T]; assay: Stabilization of FLAG/GFP-tagged NPC1 I1061T mutant (unknown origin) expressed in HEK293 cells assessed as up regulation of NPC1 I1061T mutant expression after 24 hrs by Hoechst 33342 staining based fluorescence microscopic analysis; type: cell-based
HEK293 [10] = assay: Stabilization of FLAG/GFP-tagged human NPC1L1 L1072T/I1168T double mutant expressed in HEK293 cells assessed as up regulation of NPC1L1 L1072T/I1168T double mutant expression at 3 to 30 uM after 24 hrs fluorescence microscopic analysis; type: cell-based
HEK293 [11] = assay: Chaperone activity at FLAG/GFP-tagged human NPC1L1 L1072T/I1168T double mutant expressed in HEK293 cells assessed as localization of protein mutant in plasma membrane at 10 uM after 24 hrs fluorescence microscopic analysis; type: cell-based

| Compound | EC50 ([1]; read-out: EC50) | Activity [2] | also measured |
| --- | --- | --- | --- |
| CCCCn1c(=O)c2c(c3cc(C(N)=O)ccc31)CCCCCC2 |  |  | Activity [3]: inactive; solubility [4]: Insoluble |
| COCCn1c(=O)c2ccccc2c2cc(C(N)=O)ccc21 |  |  | EC50 [1]: Not Active |
| CC(C)CCC[C@@H](C)[C@H]1CC[C@H]2[C@@H]3C[C@@H](O)[C@@]4(O)C[C@@H](OCC(=O)N5CCOCC5)CC[C@]4(C)[C@H]3CC[C@]12C | 0.15 µM |  | Activity [5]: Active |
| CCCCN1C(=O)c2ccccc2Oc2cc(C(N)=O)ccc21 |  | inactive |  |
| CCCCn1c(=O)c2ccccc2c2cc(NC(=O)C(F)(F)F)ccc21 |  | inactive |  |
| CCCCn1c(=O)c2ccccc2c2cc(C(=O)N3CCOCC3)ccc21 |  | inactive |  |
| CCCCN1C(=O)CCc2cc(C(N)=O)ccc21 |  | inactive |  |
| CCCCn1c(=O)c2ccccc2c2cc(C(O)(C(F)(F)F)C(F)(F)F)ccc21 |  | inactive |  |
| CCCCn1c(=O)c2ccccc2c2cc(N(C)C(C)=O)ccc21 |  | inactive |  |
| CCCCn1c(=O)c2ccccc2c2cc(C(=O)N3CCCCC3)ccc21 |  | inactive |  |
| CCCCCn1c(=O)c2ccccc2c2cccc(C(N)=O)c21 |  |  | EC50 [1]: Not Active; solubility [4]: Insoluble |
| CCCCn1c(=O)c2ccccc2c2cc(NS(C)(=O)=O)ccc21 | 14 µM |  |  |
| CCCCn1c(=O)c2ccccc2c2cc(C(=O)N3CCCC3)ccc21 |  | inactive |  |
| CCCCCn1c(=O)c2ccccc2c2ccc(C(N)=O)cc21 |  |  | EC50 [1]: Not Active; solubility [6]: Insoluble |
| CCCCn1c(=O)c2ccccc2c2cc(C(C)O)ccc21 (stereo not given) | > 30 µM |  |  |
| CCCCn1c(=O)c2ccccc2c2ccccc21 |  | inactive |  |
| C[C@H](CCC(=O)N(C)C)[C@H]1CC[C@H]2[C@@H]3CC=C4C[C@@H](OC(=O)N(CCO)CCO)CC[C@]4(C)[C@H]3CC[C@]12C |  |  | Activity (HEK293 [7]): Active |

| Compound | EC50 ([1]; read-out: EC50) | Activity [2] | also measured |
| --- | --- | --- | --- |
| CCCCn1c(=O)c2c(c3cc(C(N)=O)ccc31)CCCCC2 | 13 µM |  |  |
| CCCCn1c(=O)c2ccccc2c2cc(C(F)(F)F)ccc21 |  | inactive |  |
| CCCCn1c(=O)c2ccccc2c2cc(C(=O)NC3CCCCC3)ccc21 |  | inactive |  |
| CCCCNC(=O)c1ccccc1-c1cccc(C(N)=O)c1 |  | inactive |  |
| CCCCn1c(=O)c2ccccc2c2cc(C(=O)NCc3ccccc3)ccc21 |  | inactive |  |
| CCCCn1c(=O)c2ccccc2c2cc(C(=O)NC3CCCC3)ccc21 |  | inactive |  |
| NC(=O)c1ccc2c(c1)c1ccccc1c(=O)n2CCO |  |  | EC50 [1]: Not Active |
| CCCCn1c(=O)c2c(c3cc(C(N)=O)ccc31)CCC2 |  | inactive |  |
| CCCCn1c(=O)c2ccccc2c2cc(OC(=O)N3CCOCC3)ccc21 |  | inactive |  |
| O=C(O)Cc1cccc(OCCCN(Cc2cccc(C(F)(F)F)c2Cl)CC(c2ccccc2)c2ccccc2)c1 |  | inactive |  |
| O=S(=O)(c1ccccc1)N(CC(F)(F)F)c1ccc(C(O)(C(F)(F)F)C(F)(F)F)cc1 |  | inactive |  |
| CCCCn1c(=O)c2c(c3cc(C(N)=O)ccc31)CCCC2 | 30 µM |  |  |
| CCCCCn1c(=O)c2ccccc2c2c(C(N)=O)cccc21 |  |  | EC50 [1]: Not Active; solubility [6]: Insoluble |
| CCCCn1c(=O)c2ccccc2c2cc(C(=O)N(CCO)CCO)ccc21 | > 30 µM |  |  |
| CCCC(=O)N1CC2=C(CCCC2)c2cc(C(N)=O)ccc21 |  | inactive |  |
| CC(C)n1c(=O)c2ccccc2c2cc(C(N)=O)ccc21 |  |  | EC50 [1]: Not Active |

Continued, in another order:

| EC50 ([1]; read-out: EC50) | Activity [2] | Compound | also measured |
| --- | --- | --- | --- |
| > 30 µM |  | Cn1c(=O)c2ccccc2c2cc(C(N)=O)ccc21 |  |
|  | inactive | CCCCn1c(=O)c2ccccc2c2cc(C)ccc21 |  |
| > 30 µM |  | CCCCn1c(=O)c2ccccc2c2cc(C(=O)NC)ccc21 |  |
| > 30 µM |  | CCCCn1c(=O)c2ccccc2c2cc(C(C)=O)ccc21 |  |
| > 30 µM |  | CCCCn1c(=O)c2ccccc2c2cc(O)ccc21 |  |
| 14 µM |  | CCCCn1c(=O)c2ccccc2c2cc(NC(C)=O)ccc21 |  |
| > 30 µM |  | CCn1c(=O)c2ccccc2c2cc(C(N)=O)ccc21 |  |
| 19 µM |  | CCCn1c(=O)c2ccccc2c2cc(C(N)=O)ccc21 |  |
| 11 µM |  | CCCCn1c(=O)c2ccccc2c2cc(C(N)=O)ccc21 |  |
|  | inactive | CCCCn1c(=O)c2ccccc2c2cc(C(=O)NC(C)C)ccc21 |  |
|  | inactive | CCCCn1c(=O)c2ccccc2c2cc(N)ccc21 |  |
|  | inactive | CCCCn1c(=O)c2ccccc2c2cc(C(=O)NC3CC3)ccc21 |  |
| > 30 µM |  | C=CCn1c(=O)c2ccccc2c2cc(C(N)=O)ccc21 |  |
|  | inactive | CCCCn1c(=O)c2ccccc2c2cc(C(=O)N(CC)CC)ccc21 |  |
| 3.6 µM |  | NC(=O)c1ccc2c(c1)c1ccccc1c(=O)n2CC1CCCCC1 | solubility [4]: Insoluble |
| > 30 µM |  | CCCCn1c(=O)c2ccccc2c2cc(CO)ccc21 |  |
| > 3 µM |  | CCCCCCn1c(=O)c2ccccc2c2cc(C(N)=O)ccc21 | solubility [6]: Insoluble |
| 16 µM |  | C[Si](C)(C)CCOCn1c(=O)c2ccccc2c2cc(C(N)=O)ccc21 |  |
|  | inactive | CCCCn1c(=O)c2ccccc2c2cc(C(=O)NC(C)(C)C)ccc21 |  |
| 4.2 µM |  | CCCCCn1c(=O)c2ccccc2c2cc(C(N)=O)ccc21 | Activity [8]: Dose-dependent effect; Activity [9]: Dose-dependent effect; Activity (HEK293 [10]): inactive; Activity (HEK293 [11]): inactive |
| > 3 µM |  | CCCCCCCn1c(=O)c2ccccc2c2cc(C(N)=O)ccc21 | solubility [6]: Insoluble |
| > 30 µM |  | CCCCn1c(=O)c2ccccc2c2cc(C(=O)N(C)C)ccc21 |  |
|  | inactive | CCCCn1c(=O)c2ccccc2c2cc(F)ccc21 |  |
|  | inactive | CCCCn1c(=O)c2ccccc2c2cc(NC(N)=O)ccc21 |  |
|  | inactive | CCCCn1c(=O)c2ccccc2c2cc(C(=O)O)ccc21 |  |
